Data set [1] in a line: Dynamic light scattering (solubility/aggregation). The conditions noted are these: working concentrations (250 nM, PBS, pH 7.4). The data set is classed as physicochemical. As to the method:
Samples were spun down on a bench top centrifuge, 15 minutes, 15,000 rpm, room temperature, to pellet any aggregated peptide/dust before taking a measurement. Visual inspection of the tubes was used to identify if any large pellets were formed, which is indicative of large aggregates. […] The plate was then transferred and read on the DLS instrument (Wyatt Technology DynaPro Plate Reader III) at 25° C.

The nature of data set [2]: Murine serum stability assay. The data set is classed as in vitro ADME, mouse. Particulars: mouse, serum; linear peptides, Table 11; read-out: Murine serum stability assay, T1/2. As to the method:
Serum was drawn from male CD-1 mice by Pharmidex. Lyophilized peptides were solubilized in DMSO and then further diluted into male mouse (CD-1) serum at 37° C. in duplicates. The reaction was incubated at 37° C. and samples extracted at 6 time points: 0, 0.16, 0.5, 1, 3, and 6 hrs. Acetonitrile (ACN) with an internal standard (tolbutamide) was added to stop the incubation. Samples were centrifuged, and the supernatant was analyzed by HPLC-MS/MS for the parent compound.

In another data set the target is T1, rat SORT1 (76-752)-His (rat, UniProt O54861 76-752).
T1 construct: range 76-752; Amine-coupled to CM5 chip for SPR
T1 sequence (looked up): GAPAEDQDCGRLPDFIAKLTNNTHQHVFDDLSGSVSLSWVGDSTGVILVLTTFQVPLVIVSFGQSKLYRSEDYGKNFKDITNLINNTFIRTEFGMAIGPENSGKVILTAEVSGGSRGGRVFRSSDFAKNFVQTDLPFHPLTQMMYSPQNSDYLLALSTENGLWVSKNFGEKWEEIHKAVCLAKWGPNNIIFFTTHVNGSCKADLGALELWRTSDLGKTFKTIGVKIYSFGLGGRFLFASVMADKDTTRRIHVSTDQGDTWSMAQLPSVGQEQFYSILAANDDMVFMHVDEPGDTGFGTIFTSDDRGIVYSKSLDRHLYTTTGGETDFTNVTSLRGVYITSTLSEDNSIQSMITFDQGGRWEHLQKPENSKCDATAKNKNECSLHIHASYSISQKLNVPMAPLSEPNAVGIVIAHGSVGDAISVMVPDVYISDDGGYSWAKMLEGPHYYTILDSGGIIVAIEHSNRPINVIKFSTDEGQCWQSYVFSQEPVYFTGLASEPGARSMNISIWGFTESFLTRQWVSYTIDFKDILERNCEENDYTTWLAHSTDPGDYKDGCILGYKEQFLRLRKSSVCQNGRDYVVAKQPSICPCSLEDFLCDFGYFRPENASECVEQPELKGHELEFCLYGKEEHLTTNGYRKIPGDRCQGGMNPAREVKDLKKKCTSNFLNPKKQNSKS
The data set is described as follows: SPR (Biacore 8K), SORT1 on CM5 chip, unconjugated peptide with conjugation handles as analyte, 1:1 model. As to the method: (§1) SPR analysis was performed on Series S CM5 chips (Cytiva) using a Biacore 8K instrument (Cytiva). Sensorgrams were double-referenced by subtracting the response on both a reference flow cell and a blank sample. Human SORT1 (78-755)-His (Acrobiosystems), human SORT1 (78-755)-His(GenScript), mouse SORT1 (76-753)-His (R&D Systems), rat SORT1 (76-752)-His (GenScript), and cyno SORT1 (76-753)-His (GenScript) were diluted to 20-60 μg/mL in 10 mM sodium acetate pH 4.5 buffer and immobilized onto Series S CM5 chips using amine coupling at a flow rate of 10 μL/min for 45-100 s.
(§2) Ten start-up cycles and a blank cycle preceded each analysis run. The runs were performed by sequential injections of analyte (0-20 nM, 3-fold serial dilutions) with a 90 s association and 900 s dissociation at a flow rate of 30 μL/min, followed by two regeneration cycles with 2 M MgCl2 for 90 s at a flow rate of 10 μL/min. […] Five start-up cycles and a blank cycle preceded each analysis run. The runs were performed by sequential injections of analyte (0-25 nM) with a 150 seconds (s) association and 300 s dissociation at a flow rate of 30 μL/min, followed by a regeneration with 2 M MgCl₂ for 200 s at a flow rate of 10 μL/min. The kinetic rate constants (kₐ and kd) and the equilibrium binding constant (Kd) were calculated using a 1:1 kinetic binding model on the Biacore Insight Evaluation Software (Cytiva).
(§3) SPR analysis was performed on Series S CM5 chips (Cytiva) using a Biacore 8K instrument (Cytiva). Sensorgrams were double-referenced by subtracting the response on both a reference flow cell and a blank sample. The SPR analysis was conducted using four different SORT1 species: Human SORT1, Mouse SORT1, Rat SORT1, and Cyno SORT1. The samples were prepared according to the general procedure described above herein. The kinetic rate constants (ka and […]) and the equilibrium binding constant (Kd) were calculated using a 1:1 kinetic binding model on the Biacore Insight Evaluation Software (Cytiva).

A further data set concerns the target T2, cyno SORT1 (76-753)-His (cyno, UniProt A0A2K5VHG2 74-751).
T2 construct: range 76-753; Amine-coupled to CM5 chip for SPR
T2 sequence: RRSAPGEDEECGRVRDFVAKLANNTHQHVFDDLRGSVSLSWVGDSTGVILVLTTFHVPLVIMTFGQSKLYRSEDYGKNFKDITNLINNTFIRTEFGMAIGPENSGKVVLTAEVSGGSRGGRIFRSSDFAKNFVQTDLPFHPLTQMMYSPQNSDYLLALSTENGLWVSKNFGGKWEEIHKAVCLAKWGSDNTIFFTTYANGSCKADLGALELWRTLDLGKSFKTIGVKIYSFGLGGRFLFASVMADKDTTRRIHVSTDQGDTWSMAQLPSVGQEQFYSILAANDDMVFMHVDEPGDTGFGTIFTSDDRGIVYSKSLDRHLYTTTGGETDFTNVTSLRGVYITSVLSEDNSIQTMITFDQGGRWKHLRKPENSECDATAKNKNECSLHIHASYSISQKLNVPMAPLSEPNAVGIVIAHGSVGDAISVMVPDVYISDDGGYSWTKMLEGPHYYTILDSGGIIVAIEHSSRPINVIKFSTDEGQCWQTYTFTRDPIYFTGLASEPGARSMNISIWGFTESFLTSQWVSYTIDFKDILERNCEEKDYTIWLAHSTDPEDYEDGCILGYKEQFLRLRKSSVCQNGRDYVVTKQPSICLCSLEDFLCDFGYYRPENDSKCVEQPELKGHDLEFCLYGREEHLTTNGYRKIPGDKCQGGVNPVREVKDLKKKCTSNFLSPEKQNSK
Described as above. The procedure:
as §1, §2, §3

Three molecules from US20260183411A1, “TARGETING SORTILIN” (priority 2024, published 2026) can be followed below.

Where no end group is shown, it is not given here. [ ]: non-standard residue; d: D form. Cba = N[C@@H](CC1CCC1)C(=O)O; Tle = CC(C)(C)[C@H](N)C(=O)O

With `CC(C)C[C@H](NC(=O)[C@H](CC(C)C)NC(=O)[C@H](CCC(N)=O)NC(=O)[C@H](CCCNC(=N)N)NC(=O)[C@H](CC(C)C)NC(=O)[C@H](C)NC(=O)[C@@H]1CCCN1C(=O)[C@H](CC(=O)O)NC(=O)[C@H](CCCNC(=N)N)NC(=O)[C@H](CC(C)C)NC(=O)[C@@H]1CCCN1C(=O)[C@H](C)NC(=O)[C@H](CC(=O)O)NC(=O)[C@H](Cc1c[nH]c2ccccc12)NC(=O)[C@H](CCCNC(=N)N)NC(=O)[C@@H]1CCCN1C(=O)[C@H](C)N)C(=O)O` [PRGN_WT], the “solubility (DLS)” value in data set [1] is “good solubility”. Also, the half-life in data set [2] was 3.16 min.
For `CC(C)C[C@H](NC(=O)[C@H](CCCNC(=N)N)NC(=O)[C@H](CC(C)C)NC(=O)[C@H](C)NC(=O)[C@H](CC(C)C)NC(=O)[C@H](CCCNC(=N)N)NC(=O)[C@H](CCC(N)=O)NC(=O)[C@H](CC(C)C)NC(=O)[C@H](C)NC(=O)[C@@H]1CCCN1C(=O)[C@H](Cc1c[nH]c2ccccc12)NC(=O)[C@@H]1CCCN1C(=O)[C@H](C)NC(=O)[C@H](CCCNC(=N)N)NC(=O)[C@@H]1CCCN1C(=O)[C@H](CC(=O)O)NC(=O)[C@@H](N)CC(=O)O)C(=O)O` [PRGN_RL], the “solubility (DLS)” value in data set [1] is on record as “good solubility”. The half-life in data set [2] was 27.7 min.
APRWDAPLRDPALRQ[Tle][Cba] (also: conjugation handles, not given here, also called Arb-SAR-Q15) [SORT1 peptide 2 (w/conjugation handles), unconjugated]: the Kd (in general, the equilibrium constant for the complex coming apart) in the data set with rat SORT1 (76-752)-His came to 0.757 nM; in the data set with cyno SORT1 (76-753)-His it was 0.152 nM.
